Measured values from US4683230A, “BMY-28121, a new antitumor antibiotic” (Bristol-Myers Company, priority 1985, dated 1987).
In brackets after ≈: the same amount, converted by molar mass.

What was measured:
[1] = system: Clostridium perfringens A22787; experiment: microbe, parasite or virus in culture; assay type: cell-based
P388 leukemia = settings: mouse, in vivo
anaerobic bacteria = assay type: cell-based
[2] = Acute toxicity in mice, single intraperitoneal administration; set-up: species or system mice (male ddY strain); settings: mouse, in vivo, ip, male ddY mice
B16 melanoma = experiment: Antitumor activity in mice, melanotic melanoma B16; settings: ip, once daily for 9 days, circled = significant antitumor effect

In the case of `CC1(C)S[C@@H]2[C@H](NC(=O)[C@H](N)c3ccccc3)C(=O)N2[C@H]1C(=O)O` [Ampicillin], the MIC [1] is reported as 0.1 µg/mL (≈ 0.286 µM).

For `COc1cccc2c1N[C@H](O)[C@@H]1CC(/C=C/C(=O)N(C)C)=CN1C2=O` [BMY-28121A], the “antitumor activity against experimental tumors in mice, eg. P388 leukemia” value (P388 leukemia) was “marked antitumor activity”.

In the case of `COc1cccc2c1N[C@H](OC)[C@@H]1CC(/C=C/C(=O)N(C)C)=CN1C2=O` [BMY-28121B, 1,10,11,11a-tetrahydro-9,11-dimethoxy-5H-pyrrolo[2,1-c][1,4]benzodiazepine-5-one-2-N,N-dimethylacrylamide], the “inhibition of anaerobic bacteria” value (anaerobic bacteria) is reported as “inhibited all”, the “solubility in ethyl acetate and ethyl ether” value is reported as “slightly soluble” and the “solubility in methanol, ethanol, chloroform, pyridine, and dimethylformamide” value is reported as “readily soluble”. For the same compound, the solubility in n-hexane was “practically insoluble”, the solubility in water was “practically insoluble” and the “antitumor activity against experimental tumors in mice, eg. P388 leukemia” value (P388 leukemia) was “marked antitumor activity”. For the same compound, the LD50 [2] was 0.81 mg/kg.

With `CO[C@@]12[C@H](COC(N)=O)C3=C(C(=O)C(C)=C(N)C3=O)N1C[C@@H]1N[C@@H]12` [Mitomycin C] the “T/C % of MST” value (B16 melanoma; 0.13 mg/kg/day) was 124% and the “T/C % of MST” value (B16 melanoma; 0.25 mg/kg/day) was 136%.
